Test results published in patent publication US20150352207A1, “USE OF ANTIBODIES AGAINST ICAM-1 IN COMBINATION WITH AN ANTI CANCER DRUG IN THE TREATMENT OF PATIENTS” (BIOINVENT INTERNATIONAL AB, priority 2013, published 2015).

Columns and labels:
[1] = system: ICAM-1 on MM cells (CD38+/mCD45-); experiment: ICAM-1 expression on myeloma cells from treated mice (disseminated RPMI-8226 model, flow cytometry); assay type: in vivo, SCID mice; conditions: tumor cells isolated from mice treated with standard of care therapies
Procedure: Organs for FACS analysis were collected at scarification of mice, and cells from tissues were prepared by mechanistic dissociation and dispase/collagenase enzymatic digestion (Gibco, France). Cells were stained with anti-human CD38 antibody (PerCP-Cy5, Becton Dickinson), an anti-mouse CD45 (PE, Becton Dickinson) and human ICAM-1 (B11 IgG1 AF647, BioInvent) and incubated in the dark for 15 min at room temperature. After the incubation, cells were washed twice and the surface fluorescence of cells was analyzed with a flow cytometer apparatus (LSRII) at the Flow Cytometry Facility of the University of Burgundy.
200 μl containing 10×10^6 of RPMI 8226 tumour cells was intravenously injected into the caudal vein of female SCID mice. The mice had been subjected to a whole body irradiation of mice (1.8 Gy, ^60Co, BioMEP) 24 to 72 hours prior to cell injection. At D1, tumor injected mice were randomized according to their individual body weight. All treatment started day 5 after tumor cell administration except for ALKERAN®, which started at day 10. All treatments were injected in a dose volume of 10 ml/kg/inj. Mice received one of the following treatments:
The health status and behavior of mice was recorded every day and body weight of mice was recorded twice a week. […] Upon termination, bone marrow, spinal cord, adrenal glands and kidneys were collected and examined for ICAM-1 expression on tumor cells. To distinguish cells of human versus murine origin, an anti-mouse CD45 mAb was used CD45. […] In addition, cells were stained with AF647 conjugated anti ICAM-1 mAb and thereafter analyzed in a FACS LSRII. Bone marrow was mechanically dissociated to a single cell suspension whereas adrenal glands, kidneys and spinal cord cells were prepared using a combination of mechanistic dissociation and dispase/collagenase digestion (Gibco, France). Prior to the experiment, dispase and collagenase treatments were shown not to effect ICAM-1 levels on MM cell lines.

[2] = system: ARH-77 cells; experiment: Disseminated scid/ARH-77 model of multiple myeloma; assay type: in vivo, scid mice; conditions: i.v. on Days 7, 10, 13, 16; antibody 2 mg/kg, bortezomib 0.5 mg/kg; vs control treatment
Procedure: ARH-77 cells or RPMI-8226 were injected intravenously into the SCID mice. (A) ARH-77 model. Animals received intravenous injections with antibody at 2 mg/kg or bortezomib (Velcade) at 0.5 mg/kg on Days 7, 10, 13, and 16 (as indicated by arrows in the graph). (B) RPMI-8226-model. B11 or control mAb was administered i.v at 2 mg/kg, twice weekly for 8 weeks, bortezomid, at 1 mg/kg, once weekly for 8 weeks, lenalidomide p.o with 2 mg/kg for 2 cycles consisting of 5 days of treatment and 2 days of wash out, melphalan i.v at 3 mg/kg, once weekly for 8 weeks, and dexamethasone (DXH) at 6 mg/kg/inj 3 times/week for 2 consecutive weeks. There were 6-10 mice per treatment group. Statistical significance was calculated using Log-rank Graphpad Prism software and determined at ***p<0.001. (C) To study the ICAM-1 level on human cells, the cells from different organs were stained and gated for CD38+/mCD45−/B11+. Left panel indicates the percentage of B11 positive cells in CD38+/mCD45 population and right panel the mean fluorescent intensity of the positive cells.
The anti-myeloma effect of B11 was examined in a disseminated model of multiple myeloma. The early and advanced disseminated model of multiple myeloma was performed at Oncodesign, Dijon, France. Briefly: 1×10^6 (early) or 5×10^6 (advanced) ARH-77 tumor cells in 200 μL of RPMI 1640 were injected intravenously (i.v) into the caudal vein of female scid mice (D0). Tumor cell injections were performed twenty four to forty eight hours after a whole body irradiation of mice (1.8 Gy, ^60Co, INRA, BRETENNIERES). The treatment was started at D5 RPMI-8226 model or D7 (ARH-77 model) […]. B11 or control mAb was administered i.v. at 2 mg/kg, twice weekly for 8 weeks, bortezomib, at 1 mg/kg, once weekly for 8 weeks, lenalidomide p.o with 2 mg/kg for 2 cycles consisting of 5 days of treatment and 2 days of wash out, melphalan i.v. at 3 mg/kg, once weekly for 8 weeks, and dexamethasone at 6 mg/kg 1 injected 3 times a week for 2 consecutive weeks.
The disseminated model of scid/ARH-77 is a well-established experimental model that resembles human multiple myeloma disease progression and disease manifestation in many respects (33). We utilized this model to further characterize IgG B11 anti-myeloma activity (FIG. 6A). Intravenous injection of irradiated scid mice with 1×10^6 ARH-77 cells was previously shown to result in their dissemination and establishment in mouse bone-marrow, and resulting osteolytic bone-lesions and hypercalcemia, and ultimately, in animal paralysis or difficulty of breathing at which time animals were immediately sacrificed. […]

[3] = system: HUVEC and HMVEC endothelial cells; experiment: PCD in normal ICAM-1 expressing endothelial cells; assay type: cell-based; conditions: resting or activated HUVEC/HMVEC
Procedure: Target cells were seeded in 96-well culture plates at a density of 2×10^6 cells/mL culture medium. Titrated concentrations of IgG1 B11 or different negative and positive control antibodies were added to the cells, in the absence or presence of anti-human Fab fragment (Jackson ImmunoResearch) for cross-linking. The cells were then incubated for 16 hours at 37° C. in a humidified atmosphere of 5% CO2. The cells were harvested and stained for Annexin V-488/Propidium Iodide (Invitrogen, Sweden) and analysed using flow cytometer (FACS Calibur, BD Bioscience).

[4] = system: ARH-77 tumors; experiment: Advanced (established, palpable tumors) scid/ARH-77 xenograft model; conditions: IgG B11 effective even at 100-fold lower dose (0.2 mg/kg) than rituximab
Procedure: Mice were anaesthetized with a mixture of sevofluran and oxygen prior to myeloma cell inoculation and 1-5×10^6 myeloma cells were then subcutaneously injected in a volume of 100 μl into the left flank. Treatment with antibodies by intraperitonial (i.p.) injections was started either the day after cell inoculation (prophylactic model) or when tumors reached a size of approximately 100 mm^3 (established model). Antibodies were administrated in PBS in a total volume of 200 μL. Treatment with PBS or isotype control was used as control. Tumors were measured with a digital calliper and the tumor volumes were calculated according to formula: width^2×length×0.52. Animals were sacrificed when the tumor sizes reached the ethical limit of 1.5 cm. Surviving mice were sacrificed after a maximum of 5 months. Blood samples collected from the vena cava were centrifuged at 2500 g for 15 min to obtain serum and the samples were stored at −20° C. Tumors were removed for immunohistochemistry, snap frozen and were kept at −85° C.

[5] = system: ARH-77 cells; experiment: Subcutaneous scid/ARH-77 xenograft, treatment from the day after cell inoculation (prophylactic model); conditions: for anti-tumor activities of IgG B11 isotype switch variants (rank order): twice weekly treatment, s.c. ARH-77
Procedure: Tumor cells were injected subcutaneously into the left flank of SCID mice. Mice received twice-weekly intraperitoneal injections with B11, control antibody or rituximab at doses of 20, 2 and/or 0.2 mg/kg commencing one day after tumor cell inoculation. There were 8 to 10 animals per treatment group. (A) Tumor volume as a function of antibody dose. (B) Kaplan-Meier survival graph as a function of antibody dose. […] Statistical significance was calculated relative to control antibody treatment using Kruskal-Wallis Test (Nonparametric ANOVA) with Dunn's Multiple Comparisons Test (tumor volume) or the log-rank test (mouse survival) using Graphpad Instat or Prism software, respectively. Statistical significance was considered for *p<0.05, **p<0.01, and ***p<0.001.
Tumor cells were injected subcutaneously into the left flank of SCID mice. Mice received twice-weekly intraperitoneal injections with B11 at doses of 0.02-20 mg/kg commencing day after tumor cell inoculation. There were 8-10 animals per treatment group. (A) Tumor volume as a function of antibody dose. (B) Kaplan-Meier survival graph as a function of antibody dose. Statistical significance was calculated relative to control antibody treatment using Kruskal-Wallis Test (Nonparametric ANOVA) with Dunn's Multiple Comparisons Test (tumor volume) or the log-rank test (mouse survival) using Graphpad Instat or Prism software, respectively. Statistical significance was considered for *p<0.05, **p<0.01, and ***p<0.001. Graphs illustrate representative experiments out of several performed.
(A) ARH-77 cells were injected subcutaneously into the left flank of SCID mice (n=8 per group). Mice were treated with the different B11 isotypes twice weekly. […] Statistical significance was calculated relative to control antibody treatment using Kruskal-Wallis Test (Nonparametric ANOVA) with Dunn's Multiple Comparisons Test. Statistical significance was considered for *p<0.05, **p<0.01, and ***p<0.001.
Mice were anaesthetized with a mixture of sevofluran and oxygen prior to myeloma cell inoculation and 1-5×10^6 myeloma cells were then subcutaneously injected in a volume of 100 μl into the left flank. Treatment with antibodies by intraperitonial (i.p.) injections was started either the day after cell inoculation (prophylactic model) or when tumors reached a size of approximately 100 mm^3 (established model).

[6] = system: ICAM-1 expressing tumor cell lines; experiment: Complement-dependent cytotoxicity (CDC) in tumor cell lines; assay type: cell-based; conditions: panel of ICAM-1 expressing tumor cell lines
Procedure: Target cells were harvested and incubated in RPMI medium with antibodies at 5 μg/mL or at titrated concentrations between 0.01-100 μg/mL for 60 min on ice. Cells were thereafter washed and resuspended in cold medium before dispension into flow cytometry tubes. Treatments were performed in triplicates. Human serum, normal or heat-inactivated, (Sigma, Sweden) was added to tubes and the samples were incubated for 2 h at 37° C. After completed incubation ToPo-Pro-3 was added at a final concentration of 0.3 μM and cells were analyzed for membrane permeabilization using flow cytometry.

[7] = Serum antibody levels of treated xenografted mice (ELISA); assay type: in vivo; conditions: Dose 2 mg/kg; serum at end of experimentation
Procedure: We next performed a dose-titration experiment to establish IgG B11 in vivo potency and the minimal dose achieving maximal anti-tumor activity, using the scid/ARH-77 model system. […] Mouse serum antibody trough concentrations were determined by ELISA at the end of experimentation. Trough antibody concentrations were then plotted against percent of maximal in vivo anti-tumour activity, and against percent of maximal ICAM-1 receptor occupancy and tumour cell PCD at corresponding antibody concentrations in vitro (FIGS. 3C, 3D, 3E, 3F and 3G). Strikingly, a near perfect correlation between antibody concentration and in vitro tumour cell receptor occupancy, in vitro tumor cell PCD, and in vivo anti-tumour activity was observed, consistent with ICAM-1 dependent direct cell cytotoxicity underlying in vivo anti-tumour activity.

[8] = target: T1, human FcγRIIIa (Homo sapiens, UniProt P08637); experiment: B11 isotype variant binding to FcγR (Biacore), human FcγRIIIa
T1 construct: made in house; host or cells: HEK293E (transient, adherent)
Procedure: His-tagged human FcγRIIIa or mouse FcγRIV were expressed transient in adherent HEK293E cells, purified using Ni-NTA chromatography and characterized using SDS-PAGE and/or Biacore. Surface plasmon resonance (SPR) measurements were performed using a Biacore 3000 instrument. Goat α-human-F(ab)′2 F(ab)′2 fragment (Jackson laboratories) was immobilised with a CM-5 chip using a standard amine coupling protocol. IgG1 B11, IgG4 B11, or 297Q B11 were diluted to 15 and 60 μg/mL respectively and added to the surface at […] for 3 min. His tagged human FcγRIIIa or mouse FcγRIV were pre-incubated with an α-HIS antibody (R&D Systems) at a 2:1 molar ratio before addition to the chip surface, 30 μL/min, 1 min. After each cycle the surface was regenerated twice with glycine buffer pH 1.7.

[9] = system: B lymphoma cell line (CL-01); experiment: Antibody-dependent cell-mediated cytotoxicity (ADCC) with natural killer effector cells; assay type: cell-based; conditions: human Natural Killer effector cells
From the text: Buffy coats from human donors (ordered through Blodcentralen, Lund) were used to isolate peripheral blood mononuclear cells (PBMCs), and subsequently NK cells. Briefly, peripheral blood components were separated using Ficoll Paque PLUS (Amersham Biosciences, Sweden) in LeucoSep tubes (Greiner Bio-One). The PBMC fraction was removed and thoroughly washed in ice-cold DPBS (Invitrogen), before magnetic labeling and separation of the NK cell population using positive or negative NK cell isolation kits and MACS LS columns (Miltenyi Biotec). The purity of the obtained NK cell fractions was analyzed using flow cytometry, after staining with α-CD56 antibodies (BD Biosciences). Target cells were harvested, and incubated in medium with or without the respective antibodies (2 μg/mL) for 60 min on ice. Cells were thereafter washed and resuspended in cold medium before dispension into FACS tubes. Subsequently, isolated NK cells were diluted in ADCC medium and dispensed together with the respective antibody-coated target cells at varying effector/target cell ratios (40:1, 20:1, 5:1 and 1:1). All experiments were performed in triplicates. After completed incubation ToPo-Pro-3 dye and counting beads (Invitrogen) were added and cells were analyzed for membrane permeabilization using flow cytometry.

T1 sequence (P08637 17-254): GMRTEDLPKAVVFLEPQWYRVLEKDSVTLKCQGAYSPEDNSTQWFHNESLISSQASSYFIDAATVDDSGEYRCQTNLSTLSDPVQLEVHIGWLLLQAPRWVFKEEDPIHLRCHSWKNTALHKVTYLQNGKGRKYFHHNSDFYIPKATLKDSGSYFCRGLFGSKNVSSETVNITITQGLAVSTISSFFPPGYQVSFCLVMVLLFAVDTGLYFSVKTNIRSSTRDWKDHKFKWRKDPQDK

CC(C)C[C@H](NC(=O)[C@H](Cc1ccccc1)NC(=O)c1cnccn1)B(O)O [bortezomib, reference compound]
ICAM-1 expression on tumor cells after treatment ([1]; listed as VELCADE®): still expressed at unchanged, high levels | ICAM-1 expression on tumor cells after treatment ([1]; listed as bortesomib): retained | animal survival [2]: did not significantly enhance animal survival | time to symptomatic disease onset [2]: insignificantly delayed disease onset

CC(=O)O[C@H]1C(=O)[C@@]2(C)[C@H]([C@H](OC(=O)c3ccccc3)[C@]3(O)C[C@H](OC(=O)[C@H](O)[C@@H](NC(=O)c4ccccc4)c4ccccc4)C(C)=C1C3(C)C)[C@]1(OC(C)=O)CO[C@@H]1C[C@@H]2O [paclitaxel, reference compound]
programmed cell death of normal endothelial cells [3]: induced significant endothelial cell and B cell programmed cell death

Nc1cccc2c1CN(C1CCC(=O)NC1=O)C2=O (stereo not drawn) [lenalidomide]
ICAM-1 expression on tumor cells after treatment ([1]; listed as Revlimid®): still expressed at unchanged, high levels | ICAM-1 expression on tumor cells after treatment ([1]; listed as revlimid): retained

rituximab [reference compound]
animal survival [4]: incapable of reducing tumor growth or promoting animal survival | tumor growth [4]: incapable of reducing tumor growth | tumor growth ([5]; 20 mg/kg twice weekly i.p., commencing one day after tumor cell inoculation): significant anti-tumor activity albeit less efficaciously so compared to IgG B11 | induction of CDC [6]: effectively induced CDC

N[C@@H](Cc1ccc(N(CCCl)CCCl)cc1)C(=O)O [melphalan]
ICAM-1 expression on tumor cells after treatment ([1]; listed as AIKERAN®): still expressed at unchanged, high levels | ICAM-1 expression on tumor cells after treatment ([1]; listed as alkeran): retained

B1: 297Q B11: FcγR-binding deficient mutant IgG1 (N297Q IgG1) isotype switch variant of B11 (antibody, V domains shown)
VH: EVQLLESGGGLVQPGGSLRLSCAASGFTFSNAWMSWVRQAPGKGLEWVAFIWYDGSNKYYADSVKGRFTISRDNSKNTLYLQMNSLRAEDTAVYYCARYSGWYFDYWGQGTLVTVSS
VL: QSVLTQPPSASGTPGQRVTISCTGSSSNIGAGYDVHWYQQLPGTAPKLLIYDNNNRPSGVPDRFSGSKSGTSASLAISGLRSEDEADYYCQSYDSSLSAWLFGGGTKLTVLG
anti-tumor activities of IgG B11 isotype switch variants (rank order) [5]: increased in the order of IgG1N297Q<IgG4<IgG1 | In vivo IgG Levels [7]: 9.6 ± 3. μg/mL | binding to human FcγRIIIa [8]: did not bind to human FcγRIIIa | ADCC of target tumor cells [9]: did not mediate ADCC of target tumor cells

B2: IgG4 B11: human IgG4 isotype switch variant of B11 (antibody, V domains shown)
VH: EVQLLESGGGLVQPGGSLRLSCAASGFTFSNAWMSWVRQAPGKGLEWVAFIWYDGSNKYYADSVKGRFTISRDNSKNTLYLQMNSLRAEDTAVYYCARYSGWYFDYWGQGTLVTVSS
VL: QSVLTQPPSASGTPGQRVTISCTGSSSNIGAGYDVHWYQQLPGTAPKLLIYDNNNRPSGVPDRFSGSKSGTSASLAISGLRSEDEADYYCQSYDSSLSAWLFGGGTKLTVLG
anti-tumor activities of IgG B11 isotype switch variants (rank order) [5]: increased in the order of IgG1N297Q<IgG4<IgG1 | In vivo IgG Levels [7]: 13 ± 3.1 µg/mL | binding to human FcγRIIIa [8]: did not bind to human FcγRIIIa | ADCC of target tumor cells [9]: did not mediate ADCC of target tumor cells
